# From patent publication US20230083015A1, “SMALL MOLECULE DEGRADERS OF STAT3” (THE REGENTS OF THE UNIVERSITY OF MICHIGAN, priority 2019, published 2023)
# Assays:
# Format in all cases: cell-based
# mutated STAT3 proteins = target: T1, mutated STAT3 proteins (Homo sapiens, UniProt P40763, Y705F); experiment: Western blotting of total STAT3 and p-STAT3 (Y705) in DLD-1 and DLD-1 (Y705F) cells
# T1 construct: endogenous in cells; host or cells: DLD-1 (Y705F)
# Procedure: FIG. 9 is an image showing the Western blotting analysis of total STAT3 protein and phosphorylated STAT3 (Y705) in DLD-1 and DLD-1 (Y705F) cells treated with Cpd.
# (§1) In vitro cultured cells or xenograft tumors were lysed 1× Cell Lysis Buffer (Cell Signaling Technology, #9803), resolved by SDS-PAGE NuPAGE gel (Thermo Fisher Scientific), and transferred to a PVDF membrane (Bio Rad). For chemiluminescence immunoblotting, membranes were blocked for 1 h using 5% Blotting-Grade Blocker (#1706404, Bio Rad) in 1× Tris-buffered saline with Tween 20 (TBST, Pierce). Antibodies used were: rabbit mAbs for STAT3 (Cell Signaling Technology, #4368, #12640) and p-STAT3 (Y705) (Cell Signaling Technology, #9245, #52075). HRP conjugated goat anti-rabbit IgG (H+L) (#A27036) secondary antibodies was from Thermo Fisher Scientific. GAPDH (Santa Cruz Technology, sc-47724HRP) and actin (Santa Cruz Technology, sc-8432HRP, sc-47778HRP) were loading controls. For fluorescent immunoblotting, membranes were blocked using Odyssey TBS Blocker Buffer (LI-COR). IRDye 680RD and 800CW Dye-labeled secondary antibodies (LI-COR) were used. The washed membranes were scanned using Odyssey CLx imager (LI-COR). The intensity of Western blot signaling was quantitated using the Odyssey software.
# STAT3 [1] = target: T2, STAT3 (Homo sapiens, UniProt P40763); experiment: Western blotting of total STAT1, STAT2, STAT3, STAT5 and STAT6 protein in Molm-16 cells; parameters: endogenous in cells; host or cells: MOLM-16
# Procedure: FIG. 10 is an image showing the Western blotting analysis of total STAT1, STAT2, STAT3, STAT5, and STAT6 protein in Molm-16 cells treated with Cpd. No. 36. Cpd.
# as §1
# [2] = tested on: ALCL and AML cell lines expressing high levels of STAT3; experiment: Cell growth inhibition in ALCL and AML cell lines
# Description: FIG. 12 is a table showing that Cpd.
# STAT3 [3] = target: T2, STAT3; experiment: Western blotting of total STAT1, STAT2, STAT3, STAT4, STAT5 and STAT6 protein in SU-DHL-1 and SUP-M2 cells; parameters: endogenous in cells
# Procedure: FIG. 11 is an image showing the Western blotting analysis of total STAT1, STAT2, STAT3, STAT4, STAT5, and STAT6 protein in SU-DHL-1 and SUP-M2 cells treated with Cpd. Nos. 36 and 37. Cpd.
# as §1
# T2 sequence (P40763 whole entry): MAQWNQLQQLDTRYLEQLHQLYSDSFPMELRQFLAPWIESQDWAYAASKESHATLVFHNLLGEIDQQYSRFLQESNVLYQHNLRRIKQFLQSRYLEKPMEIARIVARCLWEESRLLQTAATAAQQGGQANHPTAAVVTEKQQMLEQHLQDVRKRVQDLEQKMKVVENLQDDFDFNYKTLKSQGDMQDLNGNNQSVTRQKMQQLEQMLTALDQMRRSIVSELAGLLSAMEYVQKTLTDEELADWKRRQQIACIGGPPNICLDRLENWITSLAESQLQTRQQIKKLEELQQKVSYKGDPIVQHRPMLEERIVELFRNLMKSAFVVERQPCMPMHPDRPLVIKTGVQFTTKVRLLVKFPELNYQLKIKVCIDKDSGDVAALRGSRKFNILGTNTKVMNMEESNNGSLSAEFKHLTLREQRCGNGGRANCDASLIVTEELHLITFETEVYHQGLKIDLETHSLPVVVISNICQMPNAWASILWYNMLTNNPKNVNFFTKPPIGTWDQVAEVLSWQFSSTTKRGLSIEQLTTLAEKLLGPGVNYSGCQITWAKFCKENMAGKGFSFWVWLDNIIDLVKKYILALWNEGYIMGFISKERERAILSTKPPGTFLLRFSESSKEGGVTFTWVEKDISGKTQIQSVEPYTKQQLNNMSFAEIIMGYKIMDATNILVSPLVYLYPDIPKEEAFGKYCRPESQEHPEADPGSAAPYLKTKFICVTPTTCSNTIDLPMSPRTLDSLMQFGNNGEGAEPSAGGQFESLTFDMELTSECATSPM
# T1 sequence (P40763 2-770 Y705F): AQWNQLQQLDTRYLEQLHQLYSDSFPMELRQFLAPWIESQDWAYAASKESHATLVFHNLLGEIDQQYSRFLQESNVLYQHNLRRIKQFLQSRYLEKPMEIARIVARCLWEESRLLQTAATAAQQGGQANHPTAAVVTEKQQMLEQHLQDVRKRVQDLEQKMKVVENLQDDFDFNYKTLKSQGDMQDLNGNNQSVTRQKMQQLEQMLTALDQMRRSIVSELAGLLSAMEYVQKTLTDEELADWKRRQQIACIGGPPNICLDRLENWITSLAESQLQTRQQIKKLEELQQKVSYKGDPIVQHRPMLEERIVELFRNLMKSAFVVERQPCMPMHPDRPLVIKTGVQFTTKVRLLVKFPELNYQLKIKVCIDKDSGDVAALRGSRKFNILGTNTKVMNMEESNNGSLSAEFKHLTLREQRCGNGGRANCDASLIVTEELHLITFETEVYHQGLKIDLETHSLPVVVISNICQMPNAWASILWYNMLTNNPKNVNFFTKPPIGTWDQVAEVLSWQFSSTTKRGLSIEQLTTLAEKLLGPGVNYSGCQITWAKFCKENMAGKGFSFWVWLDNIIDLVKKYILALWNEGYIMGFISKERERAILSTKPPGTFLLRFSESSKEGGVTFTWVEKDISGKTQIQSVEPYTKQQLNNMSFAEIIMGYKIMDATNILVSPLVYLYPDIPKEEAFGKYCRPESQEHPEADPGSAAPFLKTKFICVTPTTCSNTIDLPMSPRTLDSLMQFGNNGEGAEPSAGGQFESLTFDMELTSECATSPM
smiles,measurement,setting,value
"NC(=O)CC[C@H](NC(=O)[C@@H]1CC[C@@H]2CCN(C(=O)CCCCCC#Cc3cccc4c3CN(C3CCC(=O)NC3=O)C4=O)C[C@H](NC(=O)c3cc4cc(C(F)(F)P(=O)(O)O)ccc4[nH]3)C(=O)N21)C(=O)NC(c1ccccc1)c1ccccc1 (stereo partly drawn) [Cpd. No. 36, ((2-(((5S,8S,10aR)-8-(((S)-5-amino-1-(benzhydrylamino)-1,5-dioxopentan-2-yl)carbamoyl)-3-(8-(2-(2,6-dioxopiperidin-3-yl)-1-oxoisoindolin-4-yl)oct-7-ynoyl)-6-oxodecahydropyrrolo[1,2-a][1,5]diazocin-5-yl)carbamoyl)-1H-indol-5-yl)difluoromethyl)phosphonic Acid]",degradation of mutated STAT3 protein (Western blot),mutated STAT3 proteins,degrades mutated STAT3 proteins
same,selectivity of STAT3 degradation over other STAT members (Western blot),STAT3 [1],specifically degrades STAT3 protein over other STAT members
same,cell growth inhibition,[2],inhibits cell growth
same,selectivity of STAT3 degradation over other STAT members (Western blot),STAT3 [3],specifically degrades STAT3 protein over other STAT members
